From patent EP3638670B1, “SUBSTITUTED PYRROLOPYRIDINE-DERIVATIVES AS MAP4K1 MODULATORS FOR THE TREATMENT OF CANCER DISEASES” (Bayer Pharma Aktiengesellschaft, priority 2017, dated 2018)

Experiments:
MAP4K1 = biological target: T1, MAP4K1 (Homo sapiens, UniProt Q92918); experiment: TR-FRET-based binding competition assay (Tracer 222, GST-fusion protein); conditions: inhibition of binding of Tracer 222 (15 nM) to GST-fusion protein (1 nM), 30 min at 22°C
T1 construct: A recombinant fusion protein of N-terminal GST and full-length human; made in house; host or cells: baculovirus-infected SF9 insect cells
Excerpt: The ability of the compounds of the present invention to inhibit the binding of an Alexa647-labelled ATP-competitive kinase inhibitor to a Glutathione-S-transferase- (GST-) fusion protein was quantified employing the TR-FRET-based binding competition assay as described in the following paragraphs.
A recombinant fusion protein of N-terminal GST and full-length human , expressed by baculovirus infected SF9 insect cells and purified by Glutathione Sepharose affinity chromatography, was used as GST- fusion protein. Tracer 222 from Invitrogen (catalogue no. PR9198A) was used as Alexa647-labelled ATP-competitive kinase inhibitor. For the assay 50 nl of a 100fold concentrated solution of the test compound in DMSO was pipetted into either a black low volume 384well microtiter plate or a black 1536well microtiter plate (both Greiner Bio-One, Frickenhausen, Germany), 3 µl solution of Tracer 222 (25 nM => final concentration in 5 µl assay volume is 15 nM) in aqueous assay buffer [25 mM Tris/HCI pH 7.5, 10 mM MgCl2, 5 mM β-glycerolphosphate, 2.5 mM dithiothreitol, 0.5 mM ethylene glycol-bis(2-aminoethylether)-N,N,N',N'-tetraacetic acid [EGTA], 0.5 mM sodium orthovanadate, 0.01 % (w/v) bovine serum albumin [BSA], 0.005% (w/v) Pluronic F-127 (Sigma)] were added. Then the binding competition was started by the addition of 2 µl of a solution of the GST- fusion protein (2.5 nM => final conc. in the 5 µl assay volume is 1 nM) and of Anti-GST-Tb (1.25 nM => final conc. in the 5 µl assay volume is 0.5 nM), a Lumi4®-Tb Cryptate-conjugated anti-GST-antibody from Cisbio Bioassays (France), in assay buffer.
The resulting mixture was incubated 30 min at 22°C to allow the formation of a complex between the Tracer 222, the fusion protein and Anti-GST-Tb. Subsequently the amount of this complex was evaluated by measurement of the resonance energy transfer from the Tb-cryptate to the Tracer 222. Therefore, the fluorescence emissions at 620 nm and 665 nm after excitation at 350 nm were measured in a TR-FRET reader, e.g. a Pherastar (BMG Labtechnologies, Offenburg, Germany) or a Viewlux (Perkin-Elmer). The ratio of the emissions at 665 nm and at 622 nm was taken as the measure for the amount of the complex. The data were normalised (assay reaction without inhibitor = 0 % inhibition, all other assay components but GST- fusion protein = 100 % inhibition). […] Table 1: Measured IC50 values of compounds regarding inhibition

pSer376-SLP-76 = experiment: Phosphorylation assay in human cell line (pSer376-SLP-76, capillary electrophoresis); assay type: cell-based; conditions: 0.5 h, Jurkat E6.1 cells overexpressing FLAG-tagged SLP-76, a-CD3 (OKT3) stimulation, 30 min at 37 °C; for activity at 10 µM: 10µM compound, read-out: % amount of pSer376-SLP-76 @ 10µM; for activity at 20 µM: 20µM compound, read-out: % amount of pSer376-SLP-76 @ 20µM
Description: Phosphorylation assays were carried out in Jurkat E6.1 cells from American Type Culture Collection (ATCC) stably overexpressing human FLAG-tagged SLP-76 (proprietary). Cultured cells were kept in RPMI 1640 medium supplemented with 1% FCS at a cell density of 2x 10e6/mL 24h prior compound testing. Starved cells were simultaneously treated with 350 ng/mL a-CD3 antibody (clone OKT3. ebioscience #16-0037-85. plate-bound) and test compound for 30 min at 37 °C. Applied compounds were tested at either fixed concentration of 10 µmol/L and 20 µmol/L or in a 8 point dose response titration of increase compound concentration with 10 nmol/L. 50 nmol/L. 100 nmol/L. 500 nmol/L. 1 µmol/L. 5 µmol/L. 10 µmol/L and 20 µmol/L in triplicates. The cells were washed once in phosphate-buffered saline (pH 7.4). Cells were lysed using a lysis buffer containing 50 mmol/L Tris-CI (pH 7.5). 150 mM NaCl. 2 mM EDTA. 1% Triton-X 100. 0.5 % Na-DOC. 0.1% SDS. 1/10 complete mini protease inhibitor cocktail (Roche #11836170001) and 1/10 PhosSTOP phosphatase inhibitor cocktail (Roche #04906837001). A total of 1.25 µg cell lysate was analyzed by capillary electrophoresis using the Peggy Sue™ System (proteinsimple® San Jose. CA USA) with a 12-230kDa sizebased master kit with split buffer / a-rabbit-HRP #PS-MK18 / a-mouse-HRP #PS-MK19 according to manufacture's protocol. Probe antibodies used were a rabbit monoclonal antibody supernatant raised against human phospho-Ser376-SLP-76 peptide (proprietary) and for mormalization an a-alpha-Tubulin. mouse monoclonal antibody (Sigma #T9026). As control for maximal effect (max control. which represent the maximally possible inhibition of pSer376-SLP-76 by a test compound) cells with no a-CD3 (clone OKT3. ebioscience #16-0037-85. plate-bound) and no test compound treatment were used. Cells with a-CD3 treatment only were used as negative control (min control. which represent the minimally possible inhibition of pSer376-SLP-76 by a test compound)
AUC values of each respective test sample were normalized using the AUC of housekeeping gene alpha-Tubulin and AUC of pSer376-SLP-76 of the min control. The percentage of the amount of pSer-SLP-76 in the treatment samples was calculated using the max control and min control values of the respective Peggy Sue™ run. Table 3: Measured % amount of pSer376-SLP-76 of compound

T1 sequence (Q92918 whole entry, the tested form may be a part): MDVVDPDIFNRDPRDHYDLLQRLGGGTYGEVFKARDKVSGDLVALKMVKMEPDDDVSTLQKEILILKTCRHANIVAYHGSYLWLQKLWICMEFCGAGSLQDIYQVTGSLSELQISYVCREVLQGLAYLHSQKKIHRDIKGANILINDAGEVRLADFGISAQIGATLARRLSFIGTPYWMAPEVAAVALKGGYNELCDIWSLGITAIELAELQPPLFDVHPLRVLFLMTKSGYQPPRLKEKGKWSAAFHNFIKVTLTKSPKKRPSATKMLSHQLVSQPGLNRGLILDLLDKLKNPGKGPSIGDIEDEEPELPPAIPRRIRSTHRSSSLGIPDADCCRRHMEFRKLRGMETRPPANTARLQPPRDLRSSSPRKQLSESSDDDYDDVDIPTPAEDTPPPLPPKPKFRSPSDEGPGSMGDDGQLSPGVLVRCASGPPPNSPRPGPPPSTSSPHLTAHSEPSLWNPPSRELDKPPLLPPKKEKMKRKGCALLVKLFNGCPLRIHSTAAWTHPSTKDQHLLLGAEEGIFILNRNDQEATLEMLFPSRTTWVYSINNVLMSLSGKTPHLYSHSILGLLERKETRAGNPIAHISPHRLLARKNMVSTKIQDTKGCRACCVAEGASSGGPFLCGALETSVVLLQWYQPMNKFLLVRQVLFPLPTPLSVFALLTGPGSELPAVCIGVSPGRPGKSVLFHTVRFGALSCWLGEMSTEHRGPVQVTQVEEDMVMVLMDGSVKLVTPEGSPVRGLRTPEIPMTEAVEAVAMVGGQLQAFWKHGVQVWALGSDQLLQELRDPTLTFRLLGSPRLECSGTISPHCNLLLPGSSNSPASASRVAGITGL

| Compound | IC50 (MAP4K1) [nM] | activity at 10 µM (pSer376-SLP-76) [%] | activity at 20 µM (pSer376-SLP-76) [%] |
| --- | --- | --- | --- |
| O=C(NCCN1CCOCC1)Nc1ccc(Oc2ccnc3[nH]cc(C(F)(F)F)c23)c(OC(F)(F)F)c1 [Example 13, 1-[2-(morpholin-4-yl)ethyl]-3-[3-(trifluoromethoxy)-4-{[3-(trifluoromethyl)-1H-pyrrolo[2,3-b]pyridin-4-yl]oxy}phenyl]urea] | 439 | – | – |
| O=C(NCCCN1CCOCC1)Nc1ccc(Oc2ccnc3[nH]cc(C(F)(F)F)c23)c(C(F)(F)F)c1 [Example 2, 1-[3-(morpholin-4-yl)propyl]-3-[3-(trifluoromethyl)-4-{[3-(trifluoromethyl)-1H-pyrrolo[2,3-b]pyridin-4-yl]oxy}phenyl]urea] | 56.2 | 25.1 | 6.5 |
| Cc1ncc(NC(=O)Nc2ccc(Oc3ccnc4[nH]cc(Cl)c34)c(C(F)(F)F)c2)cn1 [Example 10, 1-{4-[(3-chloro-1H-pyrrolo[2,3-b]pyridin-4-yl)oxy]-3-(trifluoromethyl)phenyl}-3-(2-methylpyrimidin-5-yl)urea] | 171 | 15.9 | < 1 |
| O=C(Nc1ccc(Oc2ccnc3[nH]cc(Cl)c23)c(C(F)(F)F)c1)Nc1cccnn1 [Example 9, 1-{4-[(3-chloro-1H-pyrrolo[2,3-b]pyridin-4-yl)oxy]-3-(trifluoromethyl)phenyl}-3-pyridazin-3-ylurea] | 1260 | – | – |
| COc1cc(NC(=O)NCCCN2CCOCC2)ccc1Oc1ccnc2[nH]cc(C(F)(F)F)c12 [Example 11, 1-(3-methoxy-4-{[3-(trifluoromethyl)-1H-pyrrolo[2,3-b]pyridin-4-yl]oxy}phenyl)-3-[3-(morpholin-4-yl)propyl]urea] | 315 | 68.1 | 53.8 |
| O=C(NCCCN1CCOCC1)Nc1cc(F)c(Oc2ccnc3[nH]cc(C(F)(F)F)c23)c(C(F)(F)F)c1 [Example 4, 1-[3-fluoro-5-(trifluoromethyl)-4-{[3-(trifluoromethyl)-1H-pyrrolo[2,3-b]pyridin-4-yl]oxy}phenyl]-3-[3-(morpholin-4-yl)propyl]urea] | 65 | 17 | < 1 |
| NC(=O)Nc1ccc(Oc2ccnc3[nH]cc(C(F)(F)F)c23)c(C(F)(F)F)c1 [Example 3, 1-[3-(trifluoromethyl)-4-{[3-(trifluoromethyl)-1H-pyrrolo[2,3-b]pyridin-4-yl]oxy}phenyl]urea] | 56.2 | 21 | 2.6 |
| NC(=O)Nc1ccc(Oc2ccnc3[nH]cc(Cl)c23)c(C(F)(F)F)c1 [Example 8, 1-{4-[(3-chloro-1H-pyrrolo[2,3-b]pyridin-4-yl)oxy]-3-(trifluoromethyl)phenyl}urea] | 188 | 92.7 | 73.6 |
| O=C(NCCN1CCOCC1)Nc1ccc(Oc2ccnc3[nH]cc(Cl)c23)c(C(F)(F)F)c1 [Example 7, 1-{4-[(3-chloro-1H-pyrrolo[2,3-b]pyridin-4-yl)oxy]-3-(trifluoromethyl)phenyl}-3-[2-(morpholin-4-yl)ethyl]urea] | 124 | 5.1 | < 1 |
| O=C(NCCCN1CCOCC1)Nc1ccc(Oc2ccnc3[nH]cc(Cl)c23)c(C(F)(F)F)c1 [Example 6, 1-{4-[(3-chloro-1H-pyrrolo[2,3-b]pyridin-4-yl)oxy]-3-(trifluoromethyl)phenyl}-3-[3-(morpholin-4-yl)propyl]urea] | 158 | 69.9 | 29.5 |
| O=C(NCCN1CCOCC1)Nc1ccc(Oc2ccnc3[nH]cc(C(F)(F)F)c23)c(C(F)(F)F)c1 [Example 1, 1-[2-(morpholin-4-yl)ethyl]-3-[3-(trifluoromethyl)-4-{[3-(trifluoromethyl)-1H-pyrrolo[2,3-b]pyridin-4-yl]oxy}phenyl]urea] | 69.4 | 25.2 | 5.5 |
| O=C(NCCN1CCOCC1)Nc1cc(F)c(Oc2ccnc3[nH]cc(C(F)(F)F)c23)c(C(F)(F)F)c1 [Example 5, 1-[3-fluoro-5-(trifluoromethyl)-4-{[3-(trifluoromethyl)-1H-pyrrolo[2,3-b]pyridin-4-yl]oxy}phenyl]-3-[2-(morpholin-4-yl)ethyl]urea] | 64.6 | 27.1 | < 1 |
| O=C(NCCCN1CCOCC1)Nc1ccc(Oc2ccnc3[nH]cc(C(F)(F)F)c23)c(OC(F)(F)F)c1 [Example 12, 1-[3-(morpholin-4-yl)propyl]-3-[3-(trifluoromethoxy)-4-{[3-(trifluoromethyl)-1H-pyrrolo[2,3-b]pyridin-4-yl]oxy}phenyl]urea] | 469 | 61.8 | 23.9 |
